Experimental data reported in patent US4006243A, “Amino-, mercapto- and -oxy-substituted-phenyl and -phenalkyl imidazoles” (Schering Aktiengesellschaft, priority 1974, dated 1977).

Key:
Format in all cases: cell-based
[1] = test system: Candida albicans; assay: MIC by the tube test against Candida albicans (Table I)
From the text: (§1) Table I illustrates the high activity of the compounds of this invention, using as examples the compounds numbered 5-25, which are compared to the known compounds 1-4, viz., the ethyl ester of 1-(1,2,3,4-tetrahydro-1-naphthyl)-imidazole-5-carboxylic acid (Etonam) and the commercially available 2-dimethylamino-6-(β-diethylaminoethoxy)-benzothiazole, dihydrochloride (Dimazol dihydrochloride), as well as N-(2-hydroxybenzyl)-imidazole and N-(4-hydroxybenzyl)-imidazole (Bull. Soc. Chim. France 1973, 1179). The MIC values were determined by the tube test.

[2] = test system: Trichophyton mentagrophytes; assay: MIC by the tube test against Trichophyton mentagrophytes (Table I)
From the text: as §1

[3] = test system: Trichophyton rubrum; assay: MIC by the tube test against Trichophyton rubrum (Table I)
From the text: as §1

| Minimum Inhibitory Concentration MIC against Candida albicans [1] | Minimum Inhibitory Concentration MIC against Trichophyton mentagrophytes [2] | Minimum Inhibitory Concentration MIC against Trichophyton rubrum [3] | Structure (SMILES) |
| --- | --- | --- | --- |
| inactive | inactive |  | Oc1ccccc1Cn1ccnc1 [Compound 3, N-(2-Hydroxybenzyl)-imidazole] |
| inactive | inactive | inactive | Oc1ccc(Cn2ccnc2)cc1 [Compound 4, N-(4-Hydroxybenzyl)-imidazole] |
| inactive | inactive | inactive | CCN(CC)CCOc1ccc2nc(N(C)C)sc2c1.Cl.Cl [Compound 2, 2-Dimethylamino-6-(β-diethylaminoethoxy)-benzothiazole, dihydrochloride] |

| Structure (SMILES) | Minimum Inhibitory Concentration MIC against Candida albicans [1] | Minimum Inhibitory Concentration MIC against Trichophyton mentagrophytes [2] | Minimum Inhibitory Concentration MIC against Trichophyton rubrum [3] |
| --- | --- | --- | --- |
| CCOC(=O)c1cncn1C1CCCc2ccccc21 (stereo not drawn) [Compound 1, 1-(1,2,3,4-Tetrahydro-1-naphthyl)-imidazole-5-carboxylic Acid Ethyl Ester] | inactive |  |  |
